Measurements taken from ChEMBL document CHEMBL1697781, “Assessment of the health effects of chemicals in humans: II. Construction of an adverse effects database for QSAR modeling” (Curr Drug Discov Technol, 2004).

Key:
Conditions in all cases: human; call rule not given here
Hepatotoxicity [1] = assay: FDA HLAED, liver enzyme composite activity
Hepatotoxicity [2] = assay: FDA HLAED, alkaline phosphatase increase
Hepatotoxicity [3] = assay: FDA HLAED, serum glutamic oxaloacetic transaminase (SGOT) increase
Hepatotoxicity [4] = assay: FDA HLAED, serum glutamic pyruvic transaminase (SGPT) increase
Hepatotoxicity [5] = assay: FDA HLAED, lactate dehydrogenase (LDH) increase
Hepatotoxicity [6] = assay: FDA HLAED, gamma-glutamyl transferase (GGT) increase
Throughout, for GGT Increase - Index Value: reference of the scale not given here.
Throughout, for LDH Increase - Index Value: reference of the scale not given here.

| Compound | Composite Activity - Active (Hepatotoxicity [1]) | Composite Activity - Marginal (Hepatotoxicity [1]) | Composite Activity - Score (Hepatotoxicity [1]) | Alkaline Phosphatase Increase - Activity Score (Hepatotoxicity [2]) | Alkaline Phosphatase Increase - Index Value (Hepatotoxicity [2]) | Alkaline Phosphatase Increase - Number of Reports (Hepatotoxicity [2]) | SGOT Increase - Activity Score (Hepatotoxicity [3]) | SGOT Increase - Index Value (Hepatotoxicity [3]) | SGOT Increase - Number of Reports (Hepatotoxicity [3]) | SGPT Increase - Activity Score (Hepatotoxicity [4]) | SGPT Increase - Index Value (Hepatotoxicity [4]) | SGPT Increase - Number of Reports (Hepatotoxicity [4]) | LDH Increase - Activity Score (Hepatotoxicity [5]) | LDH Increase - Index Value (Hepatotoxicity [5]) | LDH Increase - Number of Reports (Hepatotoxicity [5]) | GGT Increase - Activity Score (Hepatotoxicity [6]) | GGT Increase - Index Value (Hepatotoxicity [6]) | GGT Increase - Number of Reports (Hepatotoxicity [6]) | further results |
| --- | --- | --- | --- | --- | --- | --- | --- | --- | --- | --- | --- | --- | --- | --- | --- | --- | --- | --- | --- |
| COc1ccc2cc(CCC(C)=O)ccc2c1 [NABUMETONE] | 0 | 0 | Inactive | Inactive | 0.8 | >= 4 | Inactive | 0.6 | >= 4 | Inactive | 0.6 | >= 4 | Inactive | 0.3 | >= 4 | Inactive | 0.5 | >= 4 |  |
| CC(C)(C)NCC(O)COc1cccc2c1CC(O)C(O)C2 (configuration not stated) [NADOLOL] | 0 | 0 | Inactive | Inactive | 0.3 | < 4 | Inactive | 0.7 | >= 4 | Inactive | 0.7 | >= 4 | Inactive | 0 | < 4 | Inactive | 0 | < 4 |  |
| CN(C/C=C/c1ccccc1)Cc1cccc2ccccc12 [NAFTIFINE] |  |  |  | Inactive | 0 | < 4 | Inactive | 0 | < 4 | Inactive | 0 | < 4 | Inactive | 0 | < 4 | Inactive | 0 | < 4 | Composite Activity - Active (Hepatotoxicity [1]; Liver): 0; Composite Activity - Marginal (Hepatotoxicity [1]; Liver): 0; Composite Activity - Score (Hepatotoxicity [1]; Liver): Inactive |
| Oc1ccc2c3c1O[C@H]1[C@@H](O)CC[C@@]4(O)[C@@H](C2)N(CC2CCC2)CC[C@]314 [NALBUPHINE] | 0 | 0 | Inactive | Inactive | 0 | < 4 | Inactive | 0 | < 4 | Inactive | 0 | < 4 | Inactive | 0 | < 4 | Inactive | 0 | < 4 |  |
| O=C1CC[C@@]2(O)[C@H]3Cc4ccc(O)c5c4[C@@]2(CCN3CC2CC2)[C@H]1O5 [NALTREXONE] | 0 | 0 | Inactive | Inactive | 0 | < 4 | Inactive | 0 | < 4 | Inactive | 23.3 | < 4 | Inactive | 0 | < 4 | Inactive | 0 | < 4 |  |
| COc1ccc2cc([C@H](C)C(=O)O)ccc2c1 [NAPROXEN] |  |  |  | Inactive | 0.1 | < 4 | Inactive | 0.1 | >= 4 | Inactive | 0 | < 4 | Inactive | 0 | < 4 | Inactive | 0.1 | < 4 | Composite Activity - Active (Hepatotoxicity [1]; Liver): 0; Composite Activity - Marginal (Hepatotoxicity [1]; Liver): 0; Composite Activity - Score (Hepatotoxicity [1]; Liver): Inactive |
| CCCc1c2oc(C(=O)O)cc(=O)c2cc2c(=O)cc(C(=O)O)n(CC)c12 [NEDOCROMIL] | 0 | 0 | Inactive | Inactive | 0 | < 4 | Inactive | 0.5 | < 4 | Inactive | 0.3 | < 4 | Inactive | 0.3 | < 4 | Inactive | 0 | < 4 |  |
| CCc1nn(CCCN2CCN(c3cccc(Cl)c3)CC2)c(=O)n1CCOc1ccccc1 [NEFAZODONE] | 0 | 2 | Inactive | Inactive | 1.1 | >= 4 | Marginally Active | 3.6 | >= 4 | Marginally Active | 3.3 | >= 4 | Inactive | 1.1 | >= 4 | Inactive | 1.1 | >= 4 |  |
| CCN[C@@H]1C[C@H](N)[C@@H](O[C@H]2OC(CN)=CC[C@H]2N)[C@H](O)[C@H]1O[C@H]1OC[C@](C)(O)[C@H](NC)[C@H]1O [NETILMICIN] | 0 | 0 | Inactive | Inactive | 0 | < 4 | Inactive | 0 | < 4 | Inactive | 0 | < 4 | Inactive | 0 | < 4 | Inactive | 0 | < 4 |  |
